Assays:
[1] = system: Micrococcus luteus; experiment: Antibacterial activity against Micrococcus luteus ATCC 9341 assessed as growth inhibition by M7-A6 method; type: functional
[2] = Cytotoxicity against human HeLa cells assessed as cell viability at 100 ug/ml after 48 hrs by MTT assay; type: cell-based; settings: read-out: Activity
[3] = Cytotoxicity against human A549 cells assessed as cell viability at 200 ug/ml after 48 hrs by MTT assay; type: cell-based; settings: read-out: Activity
[4] = system: A549; experiment: Cytotoxicity against human A549 cells assessed as inhibition of cell viability after 72 hrs by MTT assay; type: cell-based; settings: A549, 72 h
[5] = system: HeLa; experiment: Cytotoxicity against human HeLa cells assessed as inhibition of cell viability after 72 hrs by MTT assay; type: cell-based
[6] = system: Bacillus cereus; experiment: Antibacterial activity against Bacillus cereus ATCC 11778 assessed as growth inhibition by M7-A6 method; type: functional
[7] = Cytotoxicity against human A549 cells assessed as cell viability at 100 ug/ml after 48 hrs by MTT assay; type: cell-based; settings: read-out: Activity
[8] = system: HeLa; experiment: Cytotoxicity against human HeLa cells assessed as inhibition of cell viability after 48 hrs by MTT assay; type: cell-based
[9] = system: A549; experiment: Cytotoxicity against human A549 cells assessed as inhibition of cell viability after 48 hrs by MTT assay; type: cell-based; settings: A549, 48 h
[10] = Cytotoxicity against human A549 cells assessed as cell viability at 200 ug/ml after 72 hrs by MTT assay; type: cell-based; settings: read-out: Activity
[11] = Cytotoxicity against human HeLa cells assessed as cell viability at 10 ug/ml after 72 hrs by MTT assay; type: cell-based; settings: read-out: Activity
[12] = system: Staphylococcus aureus; experiment: Antibacterial activity against erythromycin, amikacin, clindamycin, ciprofloxacin, methicillin-resistant Staphylococcus aureus 15K/11 assessed as growth inhibition by M7-A6 method; type: functional
[13] = system: Escherichia coli; experiment: Antibacterial activity against Escherichia coli ATCC 8739 assessed as growth inhibition by M7-A6 method; type: functional
[14] = system: Staphylococcus aureus; experiment: Antibacterial activity against Staphylococcus aureus ATCC 6538 assessed as growth inhibition by M7-A6 method; type: functional
[15] = system: Pseudomonas aeruginosa; experiment: Antibacterial activity against Pseudomonas aeruginosa ATCC 9027 assessed as growth inhibition by M7-A6 method; type: functional
[16] = Cytotoxicity against human A549 cells assessed as cell viability at 50 ug/ml after 48 hrs by MTT assay; type: cell-based; settings: read-out: Activity
[17] = Cytotoxicity against human A549 cells assessed as cell viability at 50 ug/ml after 72 hrs by MTT assay; type: cell-based; settings: read-out: Activity
[18] = system: Staphylococcus aureus; experiment: Antibacterial activity against penicillin, erythromycin, clindamycin, ciprofloxacin, methicillin-resistant Staphylococcus aureus 19K/11 assessed as growth inhibition by M7-A6 method; type: functional
[19] = system: Bacillus subtilis; experiment: Antibacterial activity against Bacillus subtilis ATCC 6633 assessed as growth inhibition by M7-A6 method; type: functional
[20] = Cytotoxicity against human HeLa cells assessed as cell viability at 10 ug/ml after 48 hrs by MTT assay; type: cell-based; settings: read-out: Activity
[21] = system: Staphylococcus aureus; experiment: Antibacterial activity against penicillin, erythromycin, amikacin, clindamycin, ciprofloxacin, methicillin-resistant Staphylococcus aureus 572/12 assessed as growth inhibition by M7-A6 method; type: functional
[22] = Cytotoxicity against human A549 cells assessed as cell viability at 10 ug/ml after 72 hrs by MTT assay; type: cell-based; settings: read-out: Activity
[23] = system: Candida albicans; experiment: Antifungal activity against Candida albicans ATCC 10231 assessed as growth inhibition by M7-A6 method; type: functional
[24] = system: Pseudomonas aeruginosa; experiment: Antibacterial activity against Pseudomonas aeruginosa ATCC 15442 assessed as growth inhibition by M7-A6 method; type: functional
[25] = Cytotoxicity against human HeLa cells assessed as cell viability at 50 ug/ml after 48 hrs by MTT assay; type: cell-based; settings: read-out: Activity
[26] = system: Staphylococcus aureus; experiment: Antibacterial activity against Staphylococcus aureus ATCC 6538P assessed as growth inhibition by M7-A6 method; type: functional
[27] = system: Aspergillus brasiliensis; experiment: Antifungal activity against Aspergillus brasiliensis ATCC 16404 assessed as growth inhibition by M7-A6 method; type: functional
[28] = Cytotoxicity against human A549 cells assessed as cell viability at 100 ug/ml after 72 hrs by MTT assay; type: cell-based; settings: read-out: Activity
[29] = system: Micrococcus luteus; experiment: Antibacterial activity against Micrococcus luteus ATCC 10240 assessed as growth inhibition by M7-A6 method; type: functional
[30] = Cytotoxicity against human A549 cells assessed as cell viability at 10 ug/ml after 48 hrs by MTT assay; type: cell-based; settings: read-out: Activity
[31] = system: Candida parapsilosis; experiment: Antifungal activity against Candida parapsilosis ATCC 22019 assessed as growth inhibition by M7-A6 method; type: functional; settings: Lodderomyces parapsilosis
[32] = Cytotoxicity against human HeLa cells assessed as cell viability at 200 ug/ml after 72 hrs by MTT assay; type: cell-based; settings: read-out: Activity
[33] = system: Candida albicans; experiment: Antifungal activity against Candida albicans ATCC 2091 assessed as growth inhibition by M7-A6 method; type: functional
[34] = Cytotoxicity against human HeLa cells assessed as cell viability at 50 ug/ml after 72 hrs by MTT assay; type: cell-based; settings: read-out: Activity
[35] = Cytotoxicity against human HeLa cells assessed as cell viability at 200 ug/ml after 48 hrs by MTT assay; type: cell-based; settings: read-out: Activity
[36] = Cytotoxicity against human HeLa cells assessed as cell viability at 100 ug/ml after 72 hrs by MTT assay; type: cell-based; settings: read-out: Activity
[37] = system: Staphylococcus aureus; experiment: Antibacterial activity against penicillin, erythromycin, amikacin, clindamycin, ciprofloxacin, methicillin-resistant Staphylococcus aureus 573/12 assessed as growth inhibition by M7-A6 method; type: functional
[38] = system: Saccharomyces cerevisiae; experiment: Antifungal activity against Saccharomyces cerevisiae ATCC 9763 assessed as growth inhibition by M7-A6 method; type: functional
[39] = system: Staphylococcus aureus; experiment: Antibacterial activity against penicillin, erythromycin, amikacin, clindamycin, ciprofloxacin, methicillin-resistant Staphylococcus aureus 495/11 assessed as growth inhibition by M7-A6 method; type: functional

| SMILES | MIC [1] [µM] | viability at 48 h, 100 ug/ml [2] [%] | viability at 48 h, 200 ug/ml [3] [%] | IC50 [4] [µg/mL] | IC50 [5] [µg/mL] | MIC [6] [µM] | viability at 48 h, 100 ug/ml [7] [%] | IC50 [8] [µg/mL] | IC50 [9] [µg/mL] | viability at 72 h, 200 ug/ml [10] [%] | viability at 72 h, 10 ug/ml [11] [%] | MIC [12] [µM] | MIC [13] [µM] | MIC [14] [µM] | MIC [15] [µM] | viability at 48 h, 50 ug/ml [16] [%] | viability at 72 h, 50 ug/ml [17] [%] | MIC [18] [µM] | MIC [19] [µM] | viability at 48 h, 10 ug/ml [20] [%] | also measured |
| --- | --- | --- | --- | --- | --- | --- | --- | --- | --- | --- | --- | --- | --- | --- | --- | --- | --- | --- | --- | --- | --- |
| CCCCNC(=N)c1ccc(OCCSCCOc2ccc(C(=N)NCCCC)cc2)cc1.Cl | 2.6 | 63.7 | 59.1 | ≥ 50 | > 100 | 450 | 62.3 | > 100 | > 100 | 42.2 | 99 | 230 | 110 | 14 | > 1810 | 68.8 | 50.5 | 110 | 14 | 91.8 | MIC [21]: 230 µM; viability at 72 h, 10 ug/ml [22]: 67.6%; MIC [23]: 3.6 µM; MIC [24]: > 1810 µM; viability at 48 h, 50 ug/ml [25]: 83.4%; MIC [26]: 27 µM; MIC [27]: 14 µM; viability at 72 h, 100 ug/ml [28]: 48.5%; MIC [29]: 3.6 µM; viability at 48 h, 10 ug/ml [30]: 89.3%; MIC [31]: 3.6 µM; viability at 72 h, 200 ug/ml [32]: 18.5%; MIC [33]: 3.6 µM; viability at 72 h, 50 ug/ml [34]: 88.3%; viability at 48 h, 200 ug/ml [35]: 25.8%; viability at 72 h, 100 ug/ml [36]: 57.2%; MIC [37]: 14 µM; MIC [38]: 27 µM; MIC [39]: 230 µM |
| Cl.N=C(N)c1ccc(SCCOCCSc2ccc(C(=N)N)cc2)cc1 | 4.3 | 10.3 | 9.5 | 10 | < 50 | 540 | 19.8 | < 50 | 50 | 7.9 | 65.3 | 1070 | 540 | 130 | 1070 | 48.1 | 16.2 | 130 | 130 | 76.2 | MIC [21]: 270 µM; viability at 72 h, 10 ug/ml [22]: 56.4%; MIC [23]: 1070 µM; MIC [24]: 2150 µM; viability at 48 h, 50 ug/ml [25]: 10.4%; MIC [26]: 130 µM; MIC [27]: 2150 µM; viability at 72 h, 100 ug/ml [28]: 8.2%; MIC [29]: 4.3 µM; viability at 48 h, 10 ug/ml [30]: 77.1%; MIC [31]: 270 µM; viability at 72 h, 200 ug/ml [32]: 7.4%; MIC [33]: 1070 µM; viability at 72 h, 50 ug/ml [34]: 7.8%; viability at 48 h, 200 ug/ml [35]: 10.1%; viability at 72 h, 100 ug/ml [36]: 7.4%; MIC [37]: 130 µM; MIC [38]: 540 µM; MIC [39]: 1070 µM |
| Cl.N=C(NC1CCCCC1)c1ccc(OCCSCCOc2ccc(C(=N)NC3CCCCC3)cc2)cc1 | 3.2 | 70.8 | 61.4 | ≥ 50 | > 100 | 100 | 63.9 | > 100 | > 100 | 54.3 | 94.6 | 100 | 100 | 3.2 | > 1630 | 74.9 | 59.2 | 12 | 12 | 95.3 | MIC [21]: 100 µM; viability at 72 h, 10 ug/ml [22]: 69.6%; MIC [23]: 3.2 µM; MIC [24]: > 1630 µM; viability at 48 h, 50 ug/ml [25]: 95.8%; MIC [26]: 3.2 µM; MIC [27]: 3.2 µM; viability at 72 h, 100 ug/ml [28]: 59.7%; MIC [29]: 0.81 µM; viability at 48 h, 10 ug/ml [30]: 84.6%; MIC [31]: 3.2 µM; viability at 72 h, 200 ug/ml [32]: 12.3%; MIC [33]: 3.2 µM; viability at 72 h, 50 ug/ml [34]: 96.6%; viability at 48 h, 200 ug/ml [35]: 15.3%; viability at 72 h, 100 ug/ml [36]: 66.9%; MIC [37]: 12 µM; MIC [38]: 24 µM; MIC [39]: 200 µM |
| Cl.c1cc(C2=NCCN2)ccc1OCCSCCOc1ccc(C2=NCCN2)cc1 | 9.8 | 53.5 | 16.5 | ≥ 50 | > 100 | 980 | 52.6 | > 100 | > 100 | 10.2 | 67.7 | 980 | 980 | 980 | > 1960 | 63.6 | 49 | 1960 | 240 | 76.9 | MIC [21]: 1960 µM; viability at 72 h, 10 ug/ml [22]: 59.1%; MIC [23]: 240 µM; MIC [24]: > 1960 µM; viability at 48 h, 50 ug/ml [25]: 68.5%; MIC [26]: 980 µM; MIC [27]: > 1960 µM; viability at 72 h, 100 ug/ml [28]: 34.4%; MIC [29]: 9.8 µM; viability at 48 h, 10 ug/ml [30]: 80.3%; MIC [31]: 29 µM; viability at 72 h, 200 ug/ml [32]: 10.7%; MIC [33]: 240 µM; viability at 72 h, 50 ug/ml [34]: 68.1%; viability at 48 h, 200 ug/ml [35]: 16.5%; viability at 72 h, 100 ug/ml [36]: 41.8%; MIC [37]: 1960 µM; MIC [38]: 980 µM; MIC [39]: 1960 µM |
